For experiment [1] the following is noted: read-out: IC50 doses reported by other in vitro studies, cited from earlier work.
The test system of the next experiment is MelJuSo melanoma cells. Nature of the experiment: MTS cell viability assay, MelJuSo. It is filed as cell-based. The conditions noted are these: Homo sapiens, MEL-JUSO, 24 h, read-out: IC50. As for the experimental part:
(§1) Cells were cultured at indicated densities for 24 h, medium was removed and the incubation was continued in a fresh culture medium containing various GC2 or DTIC concentrations. In control experiments, cells were grown in a culture medium containing GC2 buffer.
(§2) The standard […] (MTS)-3-(4,5-dimethylthiazol-2-yl)-5-(3-carboxymethoxyphenyl)-2-(4-sulphophenyl)-2H-tetrazolium inner salt solution assay was performed in order to examine the cytotoxic/cytostatic effect of GC2 on melanoma cells. Briefly, 7.5×10^3 cells were seeded in 96-well microtiter plates (Nunc). After an overnight incubation, serial dilutions of GC2 or DTIC were added in triplicate to a final volume of 100 μl. The blank was represented by a culture medium without cells containing the highest GC2 or DTIC concentration. After 24 h of incubation 20 μl MTS was added to each well and all samples were incubated for 3 h at 37° C. An absorbance of each well was read at 450 nm in a microplate reader. A percentage of cell viability was calculated considering that 100% cell viability was represented by an absorbance of untreated samples […]. Alternatively, the number of viable cells was determined by Trypan blue exclusion test. Melanoma cells treated with GC2 were trypsinized and cells negative for blue staining (viable cells) were counted using a hemocytometer. […]

In another experiment the test system is B16F10 melanoma cells. Nature of the experiment: MTS cell viability assay, B16F10. The class given is cell-based, murine. The conditions noted are these: Mus musculus, B16-F10, B16F10, 24 h, read-out: IC50. The procedure: as §1, §2
The next experiment concerns B16D2 melanoma cells. The experiment in a line: MTS cell viability assay, B16D2. The class given is cell-based. The conditions noted are these: B16D2, 24 h, read-out: IC50. The procedure:
as §1, §2
On the technique in general: Formazan colour is commonly taken as a measure of viable cells.

The next experiment concerns MNT-1 melanoma cells. The experiment in a line: MTS cell viability assay, MNT-1. The class given is cell-based. The conditions noted are these: Homo sapiens, MNT-1, 24 h, read-out: IC50. The procedure:
as §1, §2

A further experiment concerns SKMel28 melanoma cells. Nature of the experiment: MTS cell viability assay, SKMel28. The class given is cell-based. The conditions noted are these: Homo sapiens, SK-MEL-28, SKMel28, 24 h, read-out: IC50. The procedure: as §1, §2

Read-outs that look alike come from different tables or passages of the source.

`CCCCCCCCCCCCC/C=C/[C@@H](O)[C@H](CO)NC(C)=O` [C2-ceramide]: the IC50 (usually the concentration needed to halve the response being measured) in experiment [1] (literature data) was 100 µM.
Turning to `CN(C)N=Nc1[nH]cnc1C(N)=O` [DTIC, 5-(3,3-dimethyl-1-triazeno)-imidazole-4-carboxamide, reference compound], the IC50 in the experiment with MelJuSo melanoma cells is 3000 to 4000 µM; with B16F10 melanoma cells, 3000 to 4000 µM; with B16D2 melanoma cells, 3000 to 4000 µM; in experiment [1] (literature data (Lev et al. 2004)) it was 1000 µM; in the experiment on MNT-1 melanoma cells, 3000 to 4000 µM; in the experiment on SKMel28 melanoma cells it was 3000 to 4000 µM.
